Data on 19 molecules can be found in patent publication US20220213078A1, “MODULATORS OF THE INTEGRATED STRESS RESPONSE PATHWAY” (EVOTEC INTERNATIONAL GMBH, priority 2019, published 2022).

This test deals with Tunicamycin induced ISR (ATF4) in wild-type HEK293 cells. As to the kind of experiment: HEK-ATF4 High Content Imaging assay (prevention of Tunicamycin induced ISR, ATF4 nucleus/cytoplasm signal ratio). Type of test: cell-based. The note with it: Homo sapiens, 6 hrs incubation, ATF4 immunofluorescence. The method, then: HEK-ATF4 High Content Imaging Assay
Example compounds were tested in the HEK-ATF4 High Content Imaging assay to assess their pharmacological potency to prevent Tunicamycin induced ISR. Wild-type HEK293 cells were plated in 384-well imaging assay plates at a density of 12,000 cells per well in growth medium (containing DMEM/F12, 10% FBS, 2 mM L-Glutamine, 100 U/mL Penicillin—100 μg/mL Streptomycin) and incubated at 37° C., 5% CO2. 24-hrs later, the medium was changed to 50 μl assay medium per well (DMEM/F12, 0.3% FBS, 2 mM L-Glutamine, 100 U/mL Penicillin—100 μg/mL Streptomycin). Example compounds were serially diluted in dimethyl sulfoxide (DMSO), spotted into intermediate plates and prediluted with assay medium containing 3.3 μM Tunicamycin to give an 11-fold excess of final assay concentration. In addition to the example compound testing area, the plates also contained multiples of control wells for assay normalization purposes, wells, containing Tunicamycin but no example compounds (High control), as well as wells containing neither example compound nor Tunicamycin (Low control). The assay was started by transferring 5 μl from the intermediate plate into the assay plates, followed by incubation for 6 hrs at 37° C., 5% CO2. Subsequently, cells were fixed (4% PFA in PBS, 20 min at room temperature) and submitted to indirect ATF4 immunofluorescence staining (primary antibody rabbit anti ATF4, clone D4B8, Cell Signaling Technologies; secondary antibody Alexa Fluor 488 goat anti-rabbit IgG (H+L), Thermofisher Scientific). Nuclei were stained using Hoechst dye (Thermofisher Scientific), and plates were imaged on an Opera Phenix High Content imaging platform equipped with 405 nm and 488 nm excitation. Finally, images were analyzed using script based algorithms. The main readout HEK-ATF4 monitored the ATF4 signal ratio between nucleus and cytoplasm. Tunicamycin induced an increase in the overall ATF4 ratio signal, which was prevented by ISR modulating example compounds. In addition, HEK-CellCount readout was derived from counting the number of stained nuclei corresponding to healthy cells. This readout served as an internal toxicity control.
One may read the IC50 as the point on the concentration scale where inhibition reaches its midpoint. For `O=C(COc1cnc(Cl)c(F)c1)N[C@@H]1CC[C@@H](c2nnc(-c3ccc(Cl)nc3)o2)OC1` [Example 11, 2-[(6-chloro-5-fluoropyridin-3-yl)oxy]-N-[(3R,6S)-6-[5-(6-chloropyridin-3-yl)-1,3,4-oxadiazol-2-yl]oxan-3-yl]acetamide], the IC50 was in the range of 2000 to 15000 nM.
As for `Cc1ncc(OCC(=O)N[C@@H]2CC[C@@H](c3nnc(-c4ccc(Cl)cc4)o3)OC2)cc1Cl` [Example 15, 2-[(5-chloro-6-methylpyridin-3-yl)oxy]-N-[(3R,6S)-6-[5-(4-chlorophenyl)-1,3,4-oxadiazol-2-yl]oxan-3-yl]acetamide], the half-maximal inhibitory concentration (IC50) lay within 1 to 500 nM.
`O=C(COc1ccnc(C(F)(F)F)c1)N[C@@H]1CC[C@@H](c2nnc(-c3ccc(Cl)cc3)o2)OC1` [Example 8, N-[(3R,6S)-6-[5-(4-chlorophenyl)-1,3,4-oxadiazol-2-yl]oxan-3-yl]-2-{[2-(trifluoromethyl)pyridin-4-yl]oxy}acetamide]: the IC50 is 500 to 2000 nM.
`O=C(COc1ccc(Cl)c(F)c1)N[C@H]1CC[C@H](c2nnc(-c3ccc(Cl)cc3)o2)OC1` [Example 4, 2-(4-chloro-3-fluorophenoxy)-N-[(3S,6R)-6-[5-(4-chlorophenyl)-1,3,4-oxadiazol-2-yl]oxan-3-yl]acetamide]: the half-inhibitory concentration (IC50) lay within 1 to 500 nM.
`Cc1ncc(OCC(=O)N[C@@H]2CC[C@@H](c3nnc(-c4ccc(Cl)cc4)o3)OC2)cc1F` [Example 10, N-[(3R,6S)-6-[5-(4-chlorophenyl)-1,3,4-oxadiazol-2-yl]oxan-3-yl]-2-[(5-fluoro-6-methylpyridin-3-yl)oxy]acetamide]: the IC50 lay within 500 to 2000 nM.
`O=C(COc1ccc(C(F)(F)F)nc1)N[C@@H]1CC[C@@H](c2nnc(-c3ccc(Cl)cc3)o2)OC1` [Example 18]: the IC50 was in the range of 1 to 500 nM.
In the case of `O=C(COc1cncc(C(F)(F)F)c1)N[C@@H]1CC[C@@H](c2nnc(-c3ccc(Cl)cc3)o2)OC1` [Example 19, N-[(3R,6S)-6-[5-(4-chlorophenyl)-1,3,4-oxadiazol-2-yl]oxan-3-yl]-2-{[5-(trifluoromethyl)pyridin-3-yl]oxy}acetamide], the IC50 is 500 to 2000 nM.
For `O=C(COc1cnc(Cl)c(F)c1)N[C@@H]1CC[C@@H](c2nnc(-c3ccc(Cl)cc3)o2)OC1` [Example 7, 2-[(6-chloro-5-fluoropyridin-3-yl)oxy]-N-[(3R,6S)-6-[5-(4-chlorophenyl)-1,3,4-oxadiazol-2-yl]oxan-3-yl]acetamide], the IC50 lay within 1 to 500 nM.
For `Cc1ccc(OCC(=O)N[C@@H]2CC[C@@H](c3nnc(-c4ccc(Cl)cc4)o3)OC2)cn1` [Example 12, N-[(3R,6S)-6-[5-(4-chlorophenyl)-1,3,4-oxadiazol-2-yl]oxan-3-yl]-2-[(6-methylpyridin-3-yl)oxy]acetamide], the IC50 fell in the range of 2000 to 15000 nM.
For `O=C(COc1ccc(Cl)cc1)N[C@@H]1CC[C@@H](c2nnc(-c3ccc(Cl)cc3)o2)OC1` [Example 2, 2-(4-chlorophenoxy)-N-[(3R,6S)-6-[5-(4-chlorophenyl)-1,3,4-oxadiazol-2-yl]oxan-3-yl]acetamide] the value was 1 to 500 nM; for `O=C(COc1ccc(Cl)nc1)N[C@@H]1CC[C@@H](c2nnc(-c3ccc(Cl)cc3)o2)OC1` [Example 9, N-[(3R,6S)-6-[5-(4-chlorophenyl)-1,3,4-oxadiazol-2-yl]oxan-3-yl]-2-[(6-chloropyridin-3-yl)oxy]acetamide], 1 to 500 nM.
For `O=C(COc1ccc(Cl)c(F)c1)N[C@@H]1CC[C@@H](c2nnc(-c3cncc(C(F)(F)F)c3)o2)OC1` [Example 16, 2-(4-chloro-3-fluorophenoxy)-N-[(3R,6S)-6-{5-[5-(trifluoromethyl)pyridin-3-yl]-1,3,4-oxadiazol-2-yl}oxan-3-yl]acetamide], the 50% inhibitory concentration (IC50) was in the range of 500 to 2000 nM.
`CCc1ccc(-c2nnc([C@@H]3CC[C@@H](NC(=O)COc4ccc(Cl)c(F)c4)CO3)o2)cn1` [Example 6, 2-(4-chloro-3-fluorophenoxy)-N-[(3R,6S)-6-[5-(6-ethylpyridin-3-yl)-1,3,4-oxadiazol-2-yl]oxan-3-yl]acetamide]: the concentration for half-maximal inhibition (IC50) is 500 to 2000 nM.
For the molecule `O=C(COc1ccc(Cl)c(F)c1)N[C@@H]1CC[C@@H](c2nnc(-c3ccc(Cl)cc3)o2)OC1` [Example 1, 2-(4-chloro-3-fluoro-phenoxy)-N-[(3R,6S)-6-[5-(4-chlorophenyl)-1,3,4-oxadiazol-2-yl]tetrahydropyran-3-yl]acetamide], the half-inhibitory concentration (IC50) fell in the range of 1 to 500 nM.
With `O=C(COc1cnc(Cl)cn1)N[C@@H]1CC[C@@H](c2nnc(-c3ccc(Cl)cc3)o2)OC1` [Example 13, N-[(3R,6S)-6-[5-(4-chlorophenyl)-1,3,4-oxadiazol-2-yl]oxan-3-yl]-2-[(5-chloropyrazin-2-yl)oxy]acetamide], the 50% inhibitory concentration (IC50) lay within 500 to 2000 nM.
As for `O=C(COc1ccc(Cl)c(F)c1)N[C@@H]1CC[C@@H](c2nnc(-c3ccc(C4CC4)nc3)o2)OC1` [Example 5, 2-(4-chloro-3-fluorophenoxy)-N-[(3R,6S)-6-[5-(6-cyclopropylpyridin-3-yl)-1,3,4-oxadiazol-2-yl]oxan-3-yl]acetamide], the IC50 was in the range of 1 to 500 nM.
Then `O=C(COc1ccc(Cl)c(F)c1)N[C@@H]1CC[C@@H](c2nnc(-c3ccc(C(F)(F)F)nc3)o2)OC1` [Example 3, 2-(4-chloro-3-fluorophenoxy)-N-[(3R,6S)-6-{5-[6-(trifluoromethyl)pyridin-3-yl]-1,3,4-oxadiazol-2-yl}oxan-3-yl]acetamide], with 1 to 500 nM; and `O=C(COc1cnc(Cl)nc1)N[C@@H]1CC[C@@H](c2nnc(-c3ccc(Cl)cc3)o2)OC1` [Example 14, N-[(3R,6S)-6-[5-(4-chlorophenyl)-1,3,4-oxadiazol-2-yl]oxan-3-yl]-2-[(2-chloropyrimidin-5-yl)oxy]acetamide], with 500 to 2000 nM; and `O=C(COc1ccc(Cl)c(F)c1)N[C@@H]1CC[C@@H](c2nnc(-c3ccnc(C(F)(F)F)c3)o2)OC1` [Example 17, 2-(4-chloro-3-fluorophenoxy)-N-[(3R,6S)-6-{5-[2-(trifluoromethyl)pyridin-4-yl]-1,3,4-oxadiazol-2-yl}oxan-3-yl]acetamide], with 1 to 500 nM.
